The test system of one test is H929 cells. Kind of test: Cell viability assay (H929 10 FBS). Type of test: cell-based. As to conditions: Homo sapiens, NCI-H929, 24 hours, read-out: H929_10FBS IC50. In a few lines: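 ATP-based luminescence (CellTiter-Glo or ATPlite 1 Step, 30-60 min at RT) gauged viability of H929 myeloma cells after 24 h compound treatment at 37 °C. Cells plated at 4000 per well in 10% FBS RPMI 1640 supplemented with pyruvate, HEPES and glucose.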

In a further test the target is MCL-1 (Homo sapiens (Human), UniProt Q07820). Kind of test: Cell free Mcl-1:Bim affinity assay (fluorescence polarization competition). In kind it is binding. Conditions: 15 nM MCL-1, 5 nM FITC-Bim, 1 hour at room temperature, read-out: BIM_Ki. The method, boiled down:
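Fluorescence polarization competition: 10-point 3-fold compound dilutions displaced 5 nM FITC-Bim from 15 nM MCL-1 over 1 h at room temperature. Ki was derived from the fitted IC50 using the Nikolovska-Coleska equation, with percent inhibition normalized to DMSO and positive controls.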
On the technique in general: Fluorescence polarisation rises when a labelled molecule tumbles more slowly, as on binding a larger partner.

Like-named read-outs stand apart in the source and are kept apart here. Some results are limits rather than exact numbers.

Chain of MCL-1 (Q07820 whole entry): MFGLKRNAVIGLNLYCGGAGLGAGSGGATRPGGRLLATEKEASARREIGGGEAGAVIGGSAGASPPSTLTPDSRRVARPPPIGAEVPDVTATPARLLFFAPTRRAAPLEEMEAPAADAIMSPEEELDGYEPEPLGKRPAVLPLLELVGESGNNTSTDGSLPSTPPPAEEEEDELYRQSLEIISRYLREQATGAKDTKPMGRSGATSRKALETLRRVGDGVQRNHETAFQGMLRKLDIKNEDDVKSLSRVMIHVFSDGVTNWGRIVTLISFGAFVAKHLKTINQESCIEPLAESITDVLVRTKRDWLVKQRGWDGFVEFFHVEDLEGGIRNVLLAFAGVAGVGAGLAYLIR

Take `CN(C)C(=O)O[C@H]1/C=C/CN2CCC[C@H]2C(=O)NS(=O)(=O)c2ccc3c(c2)N(C[C@@H]2CC[C@H]21)C[C@@]1(CCCc2cc(Cl)ccc21)CO3` [Example 294, [(3R,6R,7S,8E,15S,25S)-6′-Chloro-16,18,18-trioxo-spiro[23-oxa-18-thia-1,11,17-triazapentacyclo[17.7.2.03,6.011,15.022,27]octacosa-8,19,21,27-tetraene-25,1′-tetralin]-7-yl] N,N-dimethylcarbamate]: the IC50 – broadly, the midpoint of a concentration-inhibition curve – in the test with H929 cells is under 500 nM. The Ki at MCL-1 (class symbols) lay in the range of 1 to 100 nM.

On to `CCO[C@H]1CCN(C(=O)O[C@H]2/C=C/COC(C)(C)C(=O)NS(=O)(=O)c3ccc4c(c3)N(C[C@@H]3CC[C@H]32)C[C@@]2(CCCc3cc(Cl)ccc32)CO4)C1` [Example 162, [(3R,6R,7S,8E,22S)-6′-Chloro-12,12-dimethyl-13,15,15-trioxo-spiro[11,20-dioxa-15-thia-1,14-diazatetracyclo[14.7.2.03,6.019,24]pentacosa-8,16,18,24-tetraene-22,1′-tetralin]-7-yl] (3S)-3-ethoxypyrrolidine-1-carboxylate], for which, in the test on H929 cells, the IC50 is under 500 nM. Besides, the Ki at MCL-1 (class symbols) was under 1 nM.

Consider `CCOC1CN(C(=O)O[C@H]2/C=C/CN(C)C3(CCC3)C(=O)NS(=O)(=O)c3ccc4c(c3)N(C[C@@H]3CC[C@H]32)C[C@@]2(CCCc3cc(Cl)ccc32)CO4)C1` [Example 244, [(3R,6R,7S,8E,22S)-6′-Chloro-11-methyl-12,12-(1,3-propylene)-13,15,15-trioxo-spiro[20-oxa-15-thia-1,11,14-triazatetracyclo[14.7.2.03,6.019,24]pentacosa-8,16,18,24-tetraene-22,1′-tetralin]-7-yl] 3-ethoxyazetidine-1-carboxylate], for which the IC50 in the test on H929 cells is under 500 nM. Moreover, the Ki at MCL-1 (class symbols) is under 1 nM.

Consider `CC(C)NC(=O)O[C@H]1/C=C/CN(C)C(C)(C)C(=O)NS(=O)(=O)c2ccc3c(c2)N(C[C@@H]2CC[C@H]21)C[C@@]1(CCCc2cc(Cl)ccc21)CO3` [Example 207, [(3R,6R,7S,8E,22S)-6′-Chloro-11,12,12-trimethyl-13,15,15-trioxo-spiro[20-oxa-15-thia-1,11,14-triazatetracyclo[14.7.2.03,6.019,24]pentacosa-8,16,18,24-tetraene-22,1′-tetralin]-7-yl] N-isopropylcarbamate], for which the IC50 in the test on H929 cells is under 500 nM. Further, the Ki on MCL-1 (class symbols) was under 1 nM.

Take `COC[C@@H]1CC/C=C/[C@@H](OC)[C@@H]2CC[C@H]2CN2C[C@@]3(CCCc4cc(Cl)ccc43)COc3ccc(cc32)S(=O)(=O)NC1=O` [Example 96, (3R,6R,7R,8E,12S,22S)-6′-Chloro-12-(methoxymethyl)-7-methoxy-15,15-dioxo-spiro[20-oxa-15-thia-1,14-diazatetracyclo[14.7.2.03,6.019,24]pentacosa-8,16,18,24-tetraene-22,1′-tetralin]-13-one]: in the test with H929 cells, the IC50 was over 1000 nM. Moreover, the Ki at MCL-1 (class symbols) is under 1 nM.

Turning to `CN(C)C(=O)O[C@H]1/C=C/COC(C)(C)C(=O)NS(=O)(=O)c2ccc3c(c2)N(C[C@@H]2CC[C@H]21)C[C@@]1(CCOc2cc(Cl)ccc21)CO3` [Example 247, [(3R,6R,7S,8E,22S)-7′-Chloro-12,12-dimethyl-135,5-trioxo-spiro[11,20-dioxa-15-thia-1,14-diazatetracyclo[14.7.2.03,6.019,24]pentacosa-8,16,18,24-tetraene-22,4′-chromane]-7-yl] N,N-dimethylcarbamate], the IC50 in the test on H929 cells is under 500 nM. Besides, the Ki at MCL-1 (class symbols) is under 1 nM.

Regarding `CC(C)(C)OC(=O)N1CCC(CC(=O)NS(=O)(=O)c2ccc3c(c2)N(CC2CCC2)CC2(CCCc4cc(Cl)ccc42)CO3)CC1` (stereo not shown) [Example 22, tert-Butyl 4-[2-[[6′-chloro-5-(cyclobutylmethyl)spiro[2,4-dihydro-1,5-benzoxazepine-3,1′-tetralin]-7-yl]sulfonylamino]-2-oxo-ethyl]piperidine-1-carboxylate], the IC50 in the test on H929 cells is over 1000 nM. Besides, the Ki at MCL-1 (numeric values) came to 57 nM.

`COC(=O)N1C/C=C/[C@@H](OC)[C@@H]2CC[C@H]2CN2C[C@@]3(CCCc4cc(Cl)ccc43)COc3ccc(cc32)S(=O)(=O)NC(=O)C2(CCC2)C1` [Example 67, (3R,6R,7R,8E,23S)-6′-Chloro-7-methoxy-11-methoxycarbonyl-13,13-(1,3-propylene)-16,16-dioxo-spiro[21-oxa-16-thia-1,11,15-triazatetracyclo[15.7.2.03,6.020,25]hexacosa[8,17(26),18,20(25)]tetraene-23,1′-tetralin]-14-one]: the half-maximal inhibitory concentration (IC50) with H929 cells is over 1000 nM. Moreover, the Ki on MCL-1 (class symbols) was 1 to 100 nM.

For `CN(C(=O)O[C@H]1/C=C/CN(C)C2(CCC2)C(=O)NS(=O)(=O)c2ccc3c(c2)N(C[C@@H]2CC[C@H]21)C[C@@]1(CCCc2cc(Cl)ccc21)CO3)C1CCOCC1` [Example 239, [(3R,6R,7S,8E,22S)-6′-Chloro-11-methyl-12,12-(1,3-propylene)-13,15,15-trioxo-spiro[20-oxa-15-thia-1,11,14-triazatetracyclo[14.7.2.03,6.019,24]pentacosa-8,16,18,24-tetraene-22,1′-tetralin]-7-yl] N-methyl-N-tetrahydropyran-4-yl-carbamate], in the test with H929 cells, the IC50 was under 500 nM. Besides, the Ki on MCL-1 (class symbols) was under 1 nM.

As for `O=C1Cn2ccc(n2)CC(=O)N2CCC(C2)CN2C[C@@]3(CCCc4cc(Cl)ccc43)COc3ccc(cc32)S(=O)(=O)N1` (stereo partly drawn) [Example 296, (23S)-6′-Chloro-16,16-dioxo-spiro[21-oxa-16-thia-1,6,12,15,27-pentazapentacyclo[15.7.2.13,6.19,12.020,25]octacosa-9(27),10,17,19,25-pentaene-23,1′-tetralin]-7,14-dione], the IC50 in the test on H929 cells is under 500 nM. Besides, the Ki at MCL-1 (class symbols) is 1 to 100 nM.

`CN(C(=O)O[C@H]1/C=C/CN(C)C2(CCC2)C(=O)NS(=O)(=O)c2ccc3c(c2)N(C[C@@H]2CC[C@H]21)C[C@@]1(CCCc2cc(Cl)ccc21)CO3)C1COC1` [Example 240, [(3R,6R,7S,8E,22S)-6′-Chloro-11-methyl-12,12-(1,3-propylene)-13,15,15-trioxo-spiro[20-oxa-15-thia-1,14-triazatetracyclo[14.7.2.03,6.019,24]pentacosa-8,16,18,24-tetraene-22,1′-tetralin]-7-yl] N-methyl-N-(oxetan-3-yl)carbamate]: in the test on H929 cells, the IC50 was under 500 nM. Also, the Ki on MCL-1 (class symbols) is under 1 nM.

With `CC(C)CNC(=O)O[C@H]1/C=C/COC(C)(C)C(=O)NS(=O)(=O)c2ccc3c(c2)N(C[C@@H]2CC[C@H]21)C[C@@]1(CCCc2cc(Cl)ccc21)CO3` [Example 182, [(3R,6R,7S,8E,22S)-6′-Chloro-12,12-dimethyl-13,15,15-trioxo-spiro[11,20-dioxa-15-thia-1,14-diazatetracyclo[14.7.2.03,6.019,24]pentacosa-8,16,18,24-tetraene-22,1′-tetralin]-7-yl] N-isobutylcarbamate], the IC50 with H929 cells was under 500 nM. Further, on MCL-1 (class symbols), the Ki was under 1 nM.

Turning to `CCNC(=O)O[C@H]1/C=C/CN(C)C(C)(C)C(=O)NS(=O)(=O)c2ccc3c(c2)N(C[C@@H]2CC[C@H]21)C[C@@]1(CCCc2cc(Cl)ccc21)CO3` [Example 204, [(3R,6R,7S,8E,22S)-6′-Chloro-11,12,12-trimethyl-13,15,15-trioxo-spiro[20-oxa-15-thia-1,11,14-triazatetracyclo[14.7.2.03,6.019,24]pentacosa-8,16,18,24-tetraene-22,1′-tetralin]-7-yl] N-ethylcarbamate], the IC50 in the test with H929 cells is under 500 nM. At MCL-1 (class symbols), the Ki was under 1 nM.

Turning to `CN1C/C=C/[C@H](OCCN2CCCCC2)[C@@H]2CC[C@H]2CN2C[C@@]3(CCCc4cc(Cl)ccc43)COc3ccc(cc32)S(=O)(=O)NC(=O)C1(C)C` [Example 289, (3R,6R,7S,8E,22S)-6′-Chloro-11,12,12-trimethyl-15,15-dioxo-7-[2-(1-piperidyl)ethoxy]spiro[20-oxa-15-thia-1,11,14-triazatetracyclo[14.7.2.03,6.019,24]pentacosa-8,16,18,24-tetraene-22,1′-tetralin]-13-one], the IC50 in the test with H929 cells was over 1000 nM. Besides, the Ki at MCL-1 (class symbols) fell in the range of 1 to 100 nM.

Regarding `CC1(C)OC/C=C/[C@H](OC(=O)N2CC(F)C2)[C@@H]2CC[C@H]2CN2C[C@@]3(CCCc4cc(Cl)ccc43)COc3ccc(cc32)S(=O)(=O)NC1=O` [Example 165, [(3R,6R,7S,8E,22S)-6′-Chloro-12,12-dimethyl-13,15,15-trioxo-spiro[11,20-dioxa-15-thia-1,14-diazatetracyclo[14.7.2.03,6.019,24]pentacosa-8,16,18,24-tetraene-22,1′-tetralin]-7-yl] 3-fluoroazetidine-1-carboxylate], the IC50 in the test with H929 cells was under 500 nM. At MCL-1 (class symbols), the Ki was under 1 nM.

For `CO[C@@H]1CCN(C(=O)O[C@H]2/C=C/CN(C)C(C)(C)C(=O)NS(=O)(=O)c3ccc4c(c3)N(C[C@@H]3CC[C@H]32)C[C@@]2(CCCc3cc(Cl)ccc32)CO4)C1` [Example 215, [(3R,6R,7S,8E,22S)-6′-Chloro-11,12,12-trimethyl-13,15,15-trioxo-spiro[20-oxa-15-thia-1,11,14-triazatetracyclo[14.7.2.03,6.019,24]pentacosa-8,16,18,24-tetraene-22,1′-tetralin]-7-yl] (3R)-3-methoxypyrrolidine-1-carboxylate], the IC50 in the test with H929 cells is under 500 nM. Moreover, on MCL-1 (class symbols), the Ki is under 1 nM.

On to `CC1(C)OC/C=C/[C@H](OC(=O)N2CCN(c3ccccn3)CC2)[C@@H]2CC[C@H]2CN2C[C@@]3(CCCc4cc(Cl)ccc43)COc3ccc(cc32)S(=O)(=O)NC1=O` [Example 177, [(3R,6R,7S,8E,22S)-6′-Chloro-12,12-dimethyl-13,15,15-trioxo-spiro[11,20-dioxa-15-thia-1,14-diazatetracyclo[14.7.2.03,6.019,24]pentacosa-8,16,18,24-tetraene-22,1′-tetralin]-7-yl] 4-(2-pyridyl)piperazine-1-carboxylate], for which the IC50 in the test with H929 cells is under 500 nM. The Ki at MCL-1 (class symbols) was in the range of 1 to 100 nM.
